Measured values reported in EP4707280A1, “1,4-CINEOLE DERIVATIVE AND INTERMEDIATE THEREOF, HERBICIDE CONTAINING SAID DERIVATIVE AS ACTIVE INGREDIENT, METHOD FOR USING HERBICIDE, AND METHOD FOR PREPARING AGROCHEMICAL COMPOSITION” (HOKKO CHEMICAL INDUSTRY CO., LTD., priority 2023, dated 2024).

Assays:
Type in all cases: in vivo
Digitaria ciliaris [1] = assay: Test Example 3: herbicidal effect test by soil application in upland field; conditions: Digitaria ciliaris, 120 g per 10 ares, sprayed one day after sowing, 14 days after application, read-out: weed inhibition rate
Method in brief: (§1)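 Pre-emergence test: seeds mixed into top 1 cm of alluvial loam upland soil in pots; emulsifiable concentrate diluted in water sprayed on soil one day after sowing at 100 L/10 a, 120 g a.i./10 a. Weed inhibition rate (%) scored at 14 days, in duplicate.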

Echinochloa crus-galli [2] = assay: as above; conditions: Echinochloa crus-galli, 120 g per 10 ares, sprayed one day after sowing, 14 days after application, read-out: weed inhibition rate
Method in brief: as §1

Digitaria ciliaris [3] = assay: Test Example 4: herbicidal effect test by stem and leaf treatment in upland field; conditions: Digitaria ciliaris; 120 g per 10 ares; sprayed seven days after sowing, upland soil; 14 days after application; read-out: weed inhibition rate
[4] = system: Echinochloa crus-galli var. formosensis; assay: Test Example 6: herbicidal effect test by application during growth period of paddy rice (low dose); conditions: Echinochloa crus-galli; 7.5 g per 10 ares; applied seven days after sowing, flooded pots; 14 days after application; read-out: weed inhibition rate
Method in brief: (§2)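 Paddy-soil pots, flooded ~3 cm after sowing weed seeds at 0-1 cm depth, greenhouse-grown. Seven days after sowing, diluted emulsifiable concentrate applied by dropper at 7.5 g active ingredient per 10 ares. Weed inhibition rate (%) scored 14 days after application, in duplicate.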

Scirpus juncoides = assay: as above; conditions: Schoenoplectiella juncoides; 7.5 g per 10 ares; applied seven days after sowing, flooded pots; 14 days after application; read-out: weed inhibition rate
Method in brief: as §2

Digitaria ciliaris [5] = assay: Test Example 7: herbicidal effect test by soil application in upland field (low dose); conditions: Digitaria ciliaris, 7.5 g per 10 ares, sprayed one day after sowing, 14 days after application, read-out: weed inhibition rate
Method in brief: (§3)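 Duplicate pots of alluvial loam, seeds incorporated in the surface 1 cm. Soil surface sprayed 1 d after sowing (EC in water, 100 L/10 a; 7.5 g a.i./10 a). Endpoint: % inhibition, day 14.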

Echinochloa crus-galli [6] = assay: as above; conditions: Echinochloa crus-galli, 7.5 g per 10 ares, sprayed one day after sowing, 14 days after application, read-out: weed inhibition rate
Method in brief: as §3

Monochoria vaginalis = assay: Test Example 6: herbicidal effect test by application during growth period of paddy rice (low dose); conditions: Pontederia vaginalis; 7.5 g per 10 ares; applied seven days after sowing, flooded pots; 14 days after application; read-out: weed inhibition rate
Method in brief: as §2

Amaranthus viridis = assay: Test Example 3: herbicidal effect test by soil application in upland field; conditions: Amaranthus viridis, 120 g per 10 ares, sprayed one day after sowing, 14 days after application, read-out: weed inhibition rate
Method in brief: as §1

CO[C@H]1C[C@]2(C)O[C@@]1(C(C)C)C[C@H]2OCc1ccccc1C [1-151, (1 S,2R,4R,5S)-4-isopropyl-5-methoxy-l-methyl-2-((2-methylbenzyl)oxy)-7-oxabicyclo[2.2.1]heptane]
≥ 80%: inhibition at 1200 g/ha (Digitaria ciliaris [1]) | inhibition at 1200 g/ha (Echinochloa crus-galli [2]) | inhibition at 1200 g/ha (Digitaria ciliaris [3]) | inhibition at 75 g/ha [4] | inhibition at 75 g/ha (Scirpus juncoides) | inhibition at 75 g/ha (Digitaria ciliaris [5]) | inhibition at 75 g/ha (Echinochloa crus-galli [6])

CC(C)[C@]12C[C@@H](OCc3c(F)cccc3Br)[C@](C)(CC1=O)O2 [2-355, (1R,4S,5R)-5-((2-bromo-6-fluorobenzyl)oxy)-1-isopropyl-4-methyl-7-oxabicyclo[2.2.1]heptan-2-one]
≥ 80%: inhibition at 1200 g/ha (Digitaria ciliaris [1]) | inhibition at 1200 g/ha (Echinochloa crus-galli [2]) | inhibition at 1200 g/ha (Digitaria ciliaris [3]) | inhibition at 75 g/ha [4] | inhibition at 75 g/ha (Monochoria vaginalis) | inhibition at 75 g/ha (Scirpus juncoides) | inhibition at 75 g/ha (Digitaria ciliaris [5]) | inhibition at 75 g/ha (Echinochloa crus-galli [6])

CC(C)[C@]12C[C@@H](OCc3ccccc3C#N)[C@](C)(C[C@@H]1Br)O2 [1-703, 2-[[(1S,2R,4R,5S)-5-bromo-1-methyl-4-isopropyl-7-oxabicyclo[2.2.1]heptan-2-yl]oxymethyl]benzonitrile]
≥ 80%: inhibition at 1200 g/ha (Amaranthus viridis) | inhibition at 1200 g/ha (Digitaria ciliaris [1]) | inhibition at 1200 g/ha (Echinochloa crus-galli [2]) | inhibition at 1200 g/ha (Digitaria ciliaris [3]) | inhibition at 75 g/ha [4] | inhibition at 75 g/ha (Echinochloa crus-galli [6])

Cc1cccc(F)c1CO[C@@H]1C[C@]2(C(C)C)O[C@@]1(C)CC2=O [2-353, (1R,4S,5R)-5-((2-fluoro-6-methylbenzyl)oxy)-1-isopropyl-4-methyl-7-oxabicyclo[2.2.1]heptan-2-one]
≥ 80%: inhibition at 1200 g/ha (Digitaria ciliaris [1]) | inhibition at 1200 g/ha (Echinochloa crus-galli [2]) | inhibition at 1200 g/ha (Digitaria ciliaris [3]) | inhibition at 75 g/ha [4] | inhibition at 75 g/ha (Monochoria vaginalis) | inhibition at 75 g/ha (Scirpus juncoides) | inhibition at 75 g/ha (Digitaria ciliaris [5]) | inhibition at 75 g/ha (Echinochloa crus-galli [6])

CC(C)[C@]12C[C@@H](OCc3ccccc3Cl)[C@](C)(C[C@@H]1Br)O2 [1-20, (1S,2R,4R,5S)-5-bromo-2-[(2-chlorophenyl)methoxy]-1-methyl-4-isopropyl-7-oxabicyclo[2.2.1]heptane]
≥ 80%: inhibition at 1200 g/ha (Digitaria ciliaris [1]) | inhibition at 1200 g/ha (Echinochloa crus-galli [2]) | inhibition at 1200 g/ha (Digitaria ciliaris [3]) | inhibition at 75 g/ha [4] | inhibition at 75 g/ha (Monochoria vaginalis) | inhibition at 75 g/ha (Digitaria ciliaris [5]) | inhibition at 75 g/ha (Echinochloa crus-galli [6])

CC(C)=CCO[C@@H]1C[C@]2(C(C)C)O[C@@]1(C)C[C@@H]2Br [1-672, (1S,2R,4R,5S)-5-bromo-1-methyl-2-(3-methylbut-2-enoxy)-4-isopropyl-7-oxabicyclo[2.2.1]heptane]
≥ 80%: inhibition at 1200 g/ha (Amaranthus viridis) | inhibition at 1200 g/ha (Digitaria ciliaris [1]) | inhibition at 1200 g/ha (Echinochloa crus-galli [2]) | inhibition at 1200 g/ha (Digitaria ciliaris [3]) | inhibition at 75 g/ha [4] | inhibition at 75 g/ha (Monochoria vaginalis)

CCOC(C)O[C@H]1C[C@]2(C)O[C@@]1(C(C)C)C[C@H]2OCc1ccccc1C (stereo partly drawn) [1-208, (1R,2S,4S,5R)-2-(1-ethoxyethoxy)-1-isopropyl-4-methyl-5-((2-methylbenzyl)oxy)-7-oxabicyclo[2.2.1]heptane]
≥ 80%: inhibition at 1200 g/ha (Amaranthus viridis) | inhibition at 1200 g/ha (Digitaria ciliaris [1]) | inhibition at 1200 g/ha (Echinochloa crus-galli [2]) | inhibition at 1200 g/ha (Digitaria ciliaris [3]) | inhibition at 75 g/ha [4] | inhibition at 75 g/ha (Digitaria ciliaris [5]) | inhibition at 75 g/ha (Echinochloa crus-galli [6])

CC(C)[C@]12C[C@@H](OCc3ccccc3F)[C@](C)(C/C1=N\O)O2 [2-197, (1R,4S,5R,E)-5-((2-fluorobenzyl)oxy)-1-isopropyl-4-methyl-7-oxabicyclo[2.2.1]heptan-2-one oxime]
≥ 80%: inhibition at 1200 g/ha (Amaranthus viridis) | inhibition at 1200 g/ha (Digitaria ciliaris [1]) | inhibition at 1200 g/ha (Echinochloa crus-galli [2]) | inhibition at 1200 g/ha (Digitaria ciliaris [3]) | inhibition at 75 g/ha [4] | inhibition at 75 g/ha (Monochoria vaginalis) | inhibition at 75 g/ha (Digitaria ciliaris [5]) | inhibition at 75 g/ha (Echinochloa crus-galli [6])

CC(C)C1C[C@]2(C)O[C@@]1(C(C)C)C[C@H]2OCc1ccccc1F (stereo partly drawn) [1-133, (1S,2R,4R)-2-[(2-fluorobenzyl)oxy]-4,5-isopropyl-1-methyl-7-oxabicyclo[2.2.1]heptane]
≥ 80%: inhibition at 1200 g/ha (Digitaria ciliaris [1]) | inhibition at 1200 g/ha (Echinochloa crus-galli [2]) | inhibition at 1200 g/ha (Digitaria ciliaris [3]) | inhibition at 75 g/ha [4] | inhibition at 75 g/ha (Monochoria vaginalis) | inhibition at 75 g/ha (Digitaria ciliaris [5]) | inhibition at 75 g/ha (Echinochloa crus-galli [6])

CC(C)[C@]12C[C@@H](OCc3c(Cl)cccc3Cl)[C@](C)(C[C@@H]1Br)O2 [1-712, (1S,2R,4R,5S)-5-bromo-2-[(2,6-dichlorophenyl)methoxy]-1-methyl-4-isopropyl-7-oxabicyclo[2.2.1]heptane]
≥ 80%: inhibition at 1200 g/ha (Digitaria ciliaris [1]) | inhibition at 1200 g/ha (Echinochloa crus-galli [2]) | inhibition at 1200 g/ha (Digitaria ciliaris [3]) | inhibition at 75 g/ha [4] | inhibition at 75 g/ha (Monochoria vaginalis) | inhibition at 75 g/ha (Digitaria ciliaris [5]) | inhibition at 75 g/ha (Echinochloa crus-galli [6])

CC(C)[C@]12C[C@@H](OCc3ccccc3F)[C@](C)(C[C@H]1C)O2 [1-94, (1S,2R,4R,5R)-2-[(2-fluorophenyl)methoxy]-1,5-dimethyl-4-isopropyl-7-oxabicyclo[2.2.1]heptane]
≥ 80%: inhibition at 1200 g/ha (Digitaria ciliaris [1]) | inhibition at 1200 g/ha (Echinochloa crus-galli [2]) | inhibition at 1200 g/ha (Digitaria ciliaris [3]) | inhibition at 75 g/ha [4] | inhibition at 75 g/ha (Monochoria vaginalis) | inhibition at 75 g/ha (Digitaria ciliaris [5]) | inhibition at 75 g/ha (Echinochloa crus-galli [6])

CC(C)[C@]12C[C@@H](OCc3cccc(F)c3)[C@](C)(CC1=O)O2 [2-351, (1R,4S,5R)-5-((3-fluorobenzyl)oxy)-1-isopropyl-4-methyl-7-oxabicyclo[2.2.1]heptan-2-one]
≥ 80%: inhibition at 1200 g/ha (Amaranthus viridis) | inhibition at 1200 g/ha (Digitaria ciliaris [1]) | inhibition at 1200 g/ha (Echinochloa crus-galli [2]) | inhibition at 1200 g/ha (Digitaria ciliaris [3]) | inhibition at 75 g/ha [4] | inhibition at 75 g/ha (Echinochloa crus-galli [6])

Cc1ccc(CO[C@@H]2C[C@]3(C(C)C)O[C@@]2(C)C[C@@H]3Br)cc1 [1-681, (1S,2R,4R,5S)-5-bromo-1-methyl-2-[(4-methylphenyl)methoxy]-4-isopropyl-7-oxabicyclo[2.2.1]heptane]
≥ 80%: inhibition at 1200 g/ha (Digitaria ciliaris [1]) | inhibition at 1200 g/ha (Echinochloa crus-galli [2]) | inhibition at 1200 g/ha (Digitaria ciliaris [3]) | inhibition at 75 g/ha [4] | inhibition at 75 g/ha (Monochoria vaginalis) | inhibition at 75 g/ha (Scirpus juncoides) | inhibition at 75 g/ha (Echinochloa crus-galli [6])

CC(C)[C@]12C[C@@H](OCc3c(F)cccc3Cl)[C@](C)(C[C@@H]1Br)O2 [1-713, (1S,2R,4R,5S)-5-bromo-2-[(2-chloro-6-fluorophenyl)methoxy]-1-methyl-4-isopropyl-7-oxabicyclo[2.2.1]heptane]
≥ 80%: inhibition at 1200 g/ha (Digitaria ciliaris [1]) | inhibition at 1200 g/ha (Echinochloa crus-galli [2]) | inhibition at 1200 g/ha (Digitaria ciliaris [3]) | inhibition at 75 g/ha [4] | inhibition at 75 g/ha (Monochoria vaginalis) | inhibition at 75 g/ha (Digitaria ciliaris [5]) | inhibition at 75 g/ha (Echinochloa crus-galli [6])

CC(C)[C@]12C=C[C@](C)(O1)[C@H](OCc1c(F)cccc1F)C2 [3-7, (1R,4S,5R)-5-[(2,6-difluorophenyl)methoxy]-4-methyl-1-isopropyl-7-oxabicyclo[2.2.1]hept-2-ene]
≥ 80%: inhibition at 1200 g/ha (Digitaria ciliaris [1]) | inhibition at 1200 g/ha (Echinochloa crus-galli [2]) | inhibition at 1200 g/ha (Digitaria ciliaris [3]) | inhibition at 75 g/ha [4] | inhibition at 75 g/ha (Scirpus juncoides) | inhibition at 75 g/ha (Digitaria ciliaris [5]) | inhibition at 75 g/ha (Echinochloa crus-galli [6])

CCOC(C)O[C@H]1C[C@]2(C)O[C@@]1(C(C)C)C[C@H]2OCc1c(F)cccc1F (stereo partly drawn) [1-223, (1S,2R,4R,5S)-2-((2,6-difluorobenzyl)oxy)-5-(1-ethoxyethoxy)-4-isopropyl-1-methyl-7-oxabicyclo[2.2.1]heptane]
≥ 80%: inhibition at 1200 g/ha (Amaranthus viridis) | inhibition at 1200 g/ha (Digitaria ciliaris [1]) | inhibition at 1200 g/ha (Echinochloa crus-galli [2]) | inhibition at 1200 g/ha (Digitaria ciliaris [3]) | inhibition at 75 g/ha [4] | inhibition at 75 g/ha (Digitaria ciliaris [5]) | inhibition at 75 g/ha (Echinochloa crus-galli [6])

Cc1ccccc1CO[C@@H]1C[C@]2(C(C)C)O[C@@]1(C)C/C2=N\O [2-191, (1R,4S,5R,E)-1-isopropyl-4-methyl-5-((2-methylbenzyl)oxy)-7-oxabicyclo[2.2.1]heptan-2-one oxime]
≥ 80%: inhibition at 1200 g/ha (Digitaria ciliaris [1]) | inhibition at 1200 g/ha (Echinochloa crus-galli [2]) | inhibition at 1200 g/ha (Digitaria ciliaris [3]) | inhibition at 75 g/ha [4] | inhibition at 75 g/ha (Monochoria vaginalis) | inhibition at 75 g/ha (Digitaria ciliaris [5]) | inhibition at 75 g/ha (Echinochloa crus-galli [6])

CC(C)[C@]12C[C@@H](OCc3ccccc3Br)[C@](C)(C[C@@H]1Br)O2 [1-694, (1S,2R,4R,5S)-5-bromo-2-[(2-bromophenyl)methoxy]-1-methyl-4-isopropyl-7-oxabicyclo[2.2.1]heptane]
≥ 80%: inhibition at 1200 g/ha (Amaranthus viridis) | inhibition at 1200 g/ha (Digitaria ciliaris [1]) | inhibition at 1200 g/ha (Echinochloa crus-galli [2]) | inhibition at 75 g/ha [4] | inhibition at 75 g/ha (Monochoria vaginalis) | inhibition at 75 g/ha (Digitaria ciliaris [5]) | inhibition at 75 g/ha (Echinochloa crus-galli [6])
